Test results as given in PubChem BioAssay (NCI).
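The concentration for 50% growth inhibition is given as GI50. Definition used: TGI = concentration required for complete inhibition of growth.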

Legend:
Assay in all cases: growth of human tumour cells (NCI), 384-well format
SF-268 CNS = test system: SF-268 CNS
M14 melanoma = test system: M14 melanoma
HCC-2998 colon = test system: HCC-2998 colon
U251 glioblastoma = test system: U251 glioblastoma
NCI/ADR-RES ovarian = test system: NCI/ADR-RES ovarian
UACC-257 melanoma = test system: UACC-257 melanoma
BT-549 breast = test system: BT-549 breast
PC-3 prostate = test system: PC-3 prostate
OVCAR-3 ovarian = test system: OVCAR-3 ovarian
CAKI-1 renal = test system: CAKI-1 renal
HOP-62 NSCLC = test system: HOP-62 NSCLC
786-0 renal = test system: 786-0 renal
SNB-75 CNS = test system: SNB-75 CNS
OVCAR-4 ovarian = test system: OVCAR-4 ovarian
SN12C renal = test system: SN12C renal
NCI-H23 lung = test system: NCI-H23 lung
MALME-3M melanoma = test system: MALME-3M melanoma
KM12 colon = test system: KM12 colon
NCI-H226 lung = test system: NCI-H226 lung
HCT-15 colon = test system: HCT-15 colon
T-47D breast = test system: T-47D breast
MDA-MB-468 breast = test system: MDA-MB-468 breast
MDA-MB-435 melanoma = test system: MDA-MB-435 melanoma
MCF7 breast = test system: MCF7 breast
MDA-MB-231 breast = test system: MDA-MB-231 breast
SR leukemia = test system: SR leukemia
HS 578T breast = test system: HS 578T breast
MOLT-4 leukemia = test system: MOLT-4 leukemia
SNB-19 CNS = test system: SNB-19 CNS
ACHN renal = test system: ACHN renal
SF-295 CNS = test system: SF-295 CNS
NCI-H522 lung = test system: NCI-H522 lung
RPMI-8226 leukemia = test system: RPMI-8226 leukemia
SK-MEL-28 melanoma = test system: SK-MEL-28 melanoma
SK-MEL-5 melanoma = test system: SK-MEL-5 melanoma
OVCAR-5 ovarian = test system: OVCAR-5 ovarian
UACC-62 melanoma = test system: UACC-62 melanoma
SF-539 CNS = test system: SF-539 CNS
SK-OV-3 ovarian = test system: SK-OV-3 ovarian
NCI-H322M lung = test system: NCI-H322M lung
HOP-92 NSCLC = test system: HOP-92 NSCLC
IGROV1 ovarian = test system: IGROV1 ovarian
RXF 393 renal = test system: RXF 393 renal
SW-620 colon = test system: SW-620 colon
DU-145 prostate = test system: DU-145 prostate
TK-10 renal = test system: TK-10 renal
EKVX NSCLC = test system: EKVX NSCLC
A549 NSCLC = test system: A549 NSCLC
CCRF-CEM leukemia = test system: CCRF-CEM leukemia
OVCAR-8 ovarian = test system: OVCAR-8 ovarian
NCI-H460 NSCLC = test system: NCI-H460 NSCLC
COLO 205 colon = test system: COLO 205 colon
HT29 colon = test system: HT29 colon
SK-MEL-2 melanoma = test system: SK-MEL-2 melanoma
HL-60(TB) leukemia = test system: HL-60(TB) leukemia

Nc1ncn([C@@H]2S[C@H](CO)[C@@H](O)[C@@H]2F)c(=O)n1
GI50 (SF-268 CNS): 1.05 µM | TGI (SF-268 CNS): 4.99 µM | GI50 (M14 melanoma): 0.29 µM | TGI (M14 melanoma): 0.833 µM | GI50 (HCC-2998 colon): 0.267 µM | TGI (HCC-2998 colon): 14.1 µM | GI50 (U251 glioblastoma): 2.41 µM | TGI (U251 glioblastoma): 23.6 µM | GI50 (NCI/ADR-RES ovarian): 0.291 µM | TGI (NCI/ADR-RES ovarian): 1.38 µM | GI50 (UACC-257 melanoma): 58.7 µM | TGI (UACC-257 melanoma): > 100 µM | GI50 (BT-549 breast): 1.34 µM | TGI (BT-549 breast): 8.75 µM | GI50 (PC-3 prostate): 1.43 µM | TGI (PC-3 prostate): > 100 µM | GI50 (OVCAR-3 ovarian): 0.853 µM | TGI (OVCAR-3 ovarian): > 100 µM | GI50 (CAKI-1 renal): 0.625 µM | TGI (CAKI-1 renal): > 100 µM | GI50 (HOP-62 NSCLC): 0.423 µM | TGI (HOP-62 NSCLC): 2.59 µM | GI50 (786-0 renal): 0.254 µM | TGI (786-0 renal): 1.54 µM | GI50 (SNB-75 CNS): 15.6 µM | TGI (SNB-75 CNS): > 100 µM | GI50 (OVCAR-4 ovarian): > 100 µM | TGI (OVCAR-4 ovarian): > 100 µM | GI50 (SN12C renal): 0.604 µM | TGI (SN12C renal): 2.91 µM | GI50 (NCI-H23 lung): 0.269 µM | TGI (NCI-H23 lung): 0.805 µM | GI50 (MALME-3M melanoma): 0.366 µM | TGI (MALME-3M melanoma): 2.66 µM | GI50 (KM12 colon): 1.41 µM | TGI (KM12 colon): > 100 µM | GI50 (NCI-H226 lung): 1.01 µM | TGI (NCI-H226 lung): 3.8 µM | GI50 (HCT-15 colon): 1.85 µM | TGI (HCT-15 colon): > 100 µM | GI50 (T-47D breast): 10.4 µM | TGI (T-47D breast): > 100 µM | GI50 (MDA-MB-468 breast): 2.37 µM | TGI (MDA-MB-468 breast): 8.07 µM | GI50 (MDA-MB-435 melanoma): 1.73 µM | TGI (MDA-MB-435 melanoma): > 100 µM | GI50 (MCF7 breast): 0.663 µM | TGI (MCF7 breast): > 100 µM | GI50 (MDA-MB-231 breast): 1.14 µM | TGI (MDA-MB-231 breast): 81.1 µM | GI50 (SR leukemia): 0.414 µM | TGI (SR leukemia): 1.4 µM | GI50 (HS 578T breast): 0.984 µM | TGI (HS 578T breast): > 100 µM | GI50 (MOLT-4 leukemia): 0.0287 µM | TGI (MOLT-4 leukemia): 0.11 µM | GI50 (SNB-19 CNS): 0.461 µM | TGI (SNB-19 CNS): 7.05 µM | GI50 (ACHN renal): 0.224 µM | TGI (ACHN renal): 0.49 µM | GI50 (SF-295 CNS): 2.44 µM | TGI (SF-295 CNS): 17.8 µM | GI50 (NCI-H522 lung): 0.628 µM | TGI (NCI-H522 lung): > 100 µM | GI50 (RPMI-8226 leukemia): 2.16 µM | TGI (RPMI-8226 leukemia): 4.42 µM | GI50 (SK-MEL-28 melanoma): 0.507 µM | TGI (SK-MEL-28 melanoma): 4.92 µM | GI50 (SK-MEL-5 melanoma): 0.435 µM | TGI (SK-MEL-5 melanoma): 2.76 µM | GI50 (OVCAR-5 ovarian): 0.691 µM | TGI (OVCAR-5 ovarian): 7.73 µM | GI50 (UACC-62 melanoma): 3.64 µM | TGI (UACC-62 melanoma): 19.7 µM | GI50 (SF-539 CNS): 3.75 µM | TGI (SF-539 CNS): 18.6 µM | GI50 (SK-OV-3 ovarian): 0.299 µM | TGI (SK-OV-3 ovarian): 2.2 µM | GI50 (NCI-H322M lung): 2.91 µM | TGI (NCI-H322M lung): > 100 µM | GI50 (HOP-92 NSCLC): 0.314 µM | TGI (HOP-92 NSCLC): > 100 µM | GI50 (IGROV1 ovarian): 2.03 µM | TGI (IGROV1 ovarian): > 100 µM | GI50 (RXF 393 renal): 2.77 µM | TGI (RXF 393 renal): 44.8 µM | GI50 (SW-620 colon): 0.887 µM | TGI (SW-620 colon): > 100 µM | GI50 (DU-145 prostate): 0.389 µM | TGI (DU-145 prostate): 3.95 µM | GI50 (TK-10 renal): 0.988 µM | TGI (TK-10 renal): > 100 µM | GI50 (EKVX NSCLC): 6.47 µM | TGI (EKVX NSCLC): > 100 µM | GI50 (A549 NSCLC): 0.409 µM | TGI (A549 NSCLC): > 100 µM | GI50 (CCRF-CEM leukemia): 0.0266 µM | TGI (CCRF-CEM leukemia): 0.0961 µM | GI50 (OVCAR-8 ovarian): 0.255 µM | TGI (OVCAR-8 ovarian): 1.83 µM | GI50 (NCI-H460 NSCLC): 0.238 µM | TGI (NCI-H460 NSCLC): 0.724 µM | GI50 (COLO 205 colon): 0.268 µM | TGI (COLO 205 colon): 0.788 µM | GI50 (HT29 colon): 2.38 µM | TGI (HT29 colon): > 100 µM | GI50 (SK-MEL-2 melanoma): 0.392 µM | TGI (SK-MEL-2 melanoma): 0.692 µM | GI50 (HL-60(TB) leukemia): 0.241 µM | TGI (HL-60(TB) leukemia): 0.495 µM
